17 compounds from ChEMBL document CHEMBL5321235, “Design, synthesis, and SAR study of novel flavone 1,2,4-oxadiazole derivatives with anti-inflammatory activities for the treatment of Parkinson's disease” (Eur J Med Chem, 2023) can be followed below.

Active and inactive are the calls of the source. The rule behind the calls is not given here.

The test system of data set [1] is BV-2. Nature of the data set: Antiinflammatory activity in mouse BV-2 cells assessed as inhibition of LPS-induced NO production at 5 uM pretreated for 18 hrs followed by LPS-induction and measured after 6 hrs relative to control. The data set is classed as functional. The settings on record: time 24 hrs. Details: scale not given: the % may be the effect or the level left.

Data set [2] has as its system BV-2. Description: Inhibition of LPS-induced ROS production in mouse BV-2 cells at 5 uM pretreated for 18 hrs followed by LPS-stimulation and measured after 6 hrs by fluorescence microscopic analysis. The data set is classed as functional, cell-based. The settings on record: time 24.0 hrs.
The next data set deals with Microglia. Description: Neuroprotective activity against MPTP-induced apoptosis in mouse microglia assessed as reduction in apoptotic cells in brain tissue at 15 mg/kg, ip administered with compound once daily for 2 weeks followed by MPTP addition on day 8 and measured after 2 weeks of compound addition by TUNEL staining based immunofluorescence analysis. It counts as functional, organism-based.

The test system of data set [3] is BV-2. Nature of the data set: Cytotoxicity against mouse BV-2 cells assessed as reduction in cell viability at 5 uM pretreated for 18 hrs followed by LPS-stimulation and measured after 6 hrs by MTT assay. The settings on record: bv-2, 24 h. The data set is classed as toxicity, cell-based. (In general: Tetrazolium assays rely on reduction of a dye to a coloured formazan, in cell work by metabolically active cells.)

Data set [4] deals with BV-2. Nature of the data set: Cytotoxicity against mouse BV-2 cells assessed as reduction in cell viability at 10 uM pretreated for 18 hrs followed by LPS-stimulation and measured after 6 hrs by MTT assay. The data set is classed as toxicity, cell-based. The settings on record: bv-2, 24 h.

As for `COc1ccc(-c2noc(-c3cccc4c(=O)c(C)c(-c5ccccc5)oc34)n2)cc1`, the Activity with BV-2 [1] amounted to 22.4%. Further, in the data set on BV-2 [2], the inhibition entry was “Active”.
The matching figures for `Cc1ccccc1-c1noc(-c2cccc3c(=O)c(C)c(-c4ccccc4)oc23)n1`: 22.4% and “Active”.
Turning to `C#CCN[C@@H]1CCc2ccccc21`, the outcome with Microglia was Active. The inhibition result with BV-2 [2] was “Active”.
For `Cc1c(-c2ccccc2)oc2c(-c3nc(-c4ccc(F)cc4)no3)cccc2c1=O`, the Activity in the data set on BV-2 [1] is reported as 41.6%; with BV-2 [3] it was “Non-Toxic”; with BV-2 [4], “Non-Toxic”. In addition, in the data set with BV-2 [2], the inhibition result is “Active”.
On to `COc1ccccc1-c1noc(-c2cccc3c(=O)c(C)c(-c4ccccc4)oc23)n1`, for which, in the data set on BV-2 [1], the Activity came out at 41.6%. In addition, the inhibition result in the data set on BV-2 [2] is “inactive”.
The like results for `Cc1c(-c2ccccc2)oc2c(-c3nc(-c4ccccc4)no3)cccc2c1=O` were, in that order, 22.4% and “Active”.
Consider `COc1ccc(-c2coc3cc(O)cc(O)c3c2=O)cc1`, for which the inhibition entry with BV-2 [2] was “Active”.
`Cc1c(-c2ccccc2)oc2c(-c3nc(-c4ccccc4F)no3)cccc2c1=O`: the Activity with BV-2 [1] came out at 41.6%. Besides, the inhibition entry in the data set with BV-2 [2] is “Active”.
With `Cc1c(-c2ccccc2)oc2c(-c3nc(-c4ccsc4)no3)cccc2c1=O`, the inhibition entry with BV-2 [2] was “Active”.
`Cc1ccc(-c2noc(-c3cccc4c(=O)c(C)c(-c5ccccc5)oc34)n2)cc1`: the Activity in the data set on BV-2 [1] was found to be 22.4%. In addition, the inhibition entry with BV-2 [2] was “Active”.
With `Cc1ccc(-c2noc(-c3ccc(F)c(F)c3)n2)cn1`, the inhibition entry in the data set on BV-2 [2] is “Active”.
Regarding `Cc1c(-c2ccccc2)oc2c(-c3nc(-c4cccc(Br)c4)no3)cccc2c1=O`, the Activity in the data set on BV-2 [1] is given as 41.6%; with BV-2 [3], “Non-Toxic”. In addition, the inhibition entry in the data set on BV-2 [2] was “Active”.
Consider `COc1cccc(-c2noc(-c3cccc4c(=O)c(C)c(-c5ccccc5)oc34)n2)c1`, for which the Activity in the data set on BV-2 [1] is reported as 22.4%. Also, the inhibition result with BV-2 [2] is “inactive”.
The like results for `Cc1c(-c2ccccc2)oc2c(-c3nc(-c4ccccc4Br)no3)cccc2c1=O` were, in that order, 41.6% and “Active”.
The like results for `Cc1c(-c2ccccc2)oc2c(-c3nc(-c4cccc(F)c4)no3)cccc2c1=O` were, in that order, 22.4% and “Active”.
In the case of `CCc1ccc(-c2noc(-c3cccc4c(=O)c(C)c(-c5ccccc5)oc34)n2)cc1`, the Activity in the data set with BV-2 [1] stood at 41.6%. Besides, in the data set on BV-2 [2], the inhibition entry is “Active”.
Turning to `Cc1c(-c2ccccc2)oc2c(-c3nc(-c4ccc(Br)cc4)no3)cccc2c1=O`, the Activity was 41.6% with BV-2 [1] and “Non-Toxic” with BV-2 [3]. For the same compound, in the data set with BV-2 [2], the inhibition result is “Active”.
